Patent publication US20190015423A1, “REGULATION OF GENE EXPRESSION BY MODULATING PRIMARY CILIA LENGTH” (THE TRUSTEES OF COLUMBIA UNIVERSITY IN THE CITY OF NEW YORK, priority 2016, published 2019)
Counter-ions that a name gives are not always drawn.

What follows are compounds tested on MLO-Y4 osteocytes (assay: High-throughput drug screening of primary cilia length and incidence). Settings: 10 μM, 16 hours, triplicate; normalized to vehicle control; standard deviation away from the population average.
Format: cell-based
Procedure: MLO-Y4 osteocytes were maintained on collagen I-coated dishes in MEMα (Life_Technologies) supplemented with 5% fetal bovine serum (FBS), 5% calf serum (CS), and 1% penicillin/streptomycin (P/S) at 37° C. and 5% CO2. Osteocytes were then seeded onto 384-well collagen-coated plates for 72 hours before fixation. […] These libraries include Tocris, Sigma LOPAC, Selleck Chemical, Prestwick, and Spectrum commercially available compound libraries. All cell seeding and plate handling was performed with the Perkin Elmer cell:explorer workstation.
Cells were fixed in 4% paraformaldehyde and permeabilized with 0.1% Triton-X 100 (Sigma). 10% goat serum (vendor) was used for blocking. Cilia were stained using a monoclonal antibody against acetylated α-tubulin (1:20) from a C3B9 hybridoma cell line, and visualized with A F488 (1:1000, ThermoFisher). Nuclei were visualized with Hoechst. Cells were imaged using a GE INCell 2000 high-throughput imager at 40× magnification. 4 fields of view were taken per well.
Each pair of nuclei and cilia images was first analyzed individually, then the entire population was examined to evaluate each compound's effect on cilia length and incidence. A custom MATLAB script was developed to perform all image analysis. This script first utilizes an enhanced implementation of a watershed transform, which is a segmentation tool which enables detection of similarly shaped overlapping particles in noisy images by the procedural whittling down of pixels found close to the edge of such particles. The augmentation of the algorithm incorporates thresholding for noise removal based on signal intensity and object size, nuclei dilation to exclude non-cellular artifacts, as well as skeletonization of cilia to quantify length. The results of the analysis are number of nuclei, number of cilia, and average cilia length in each image.
Compounds were selected based on deviation from the population mean. Each well was normalized to vehicle control images on each plate, allowing the establishment of a normalized population mean. Hits were chosen based on compounds whose triplicate mean was furthest (based on standard deviation away) from the population mean. […] Compounds were classified based on mechanism of action.
To identify compounds that modulate primary cilia formation a high-throughput platform was developed to automate cell culture, staining, imaging, and analysis, as shown in schematic form in FIG. 18. […] Cells were cultured on 384-well plates, and treated with small molecules with known biologic activity, enabling classification of mechanisms of action. Drug treatment was applied for 16 hours at 10 μM concentration, performed in triplicate, before fixation and immunostaining of primary cilia. Cells were then imaged using the GE INCell 2000 High Content Analyzer, capturing 4 fields of view per well at 40× magnification. Additionally, each plate contains 8 wells of DMSO vehicle control.
A MATLAB script was developed to detect and analyze changes in ciliogenesis. […] A representative exemplary image (FIG. 19A) is cropped to better display features, scale bar represents 30 μm. A custom MATLAB script was used to identify nuclei and cilia for analysis (FIG. 19B). […] Objects are further filtered based on size and signal intensity.
Cilia length and incidence for each field of view were normalized to vehicle control on that individual plate. This allowed development of a normalized population average and standard deviation. […] To control for toxic effects only small molecules with at least 40% viability, based on number of nuclei versus control, were selected as hits. Furthermore, compounds repeated between multiple libraries eliciting the same effect on cilia length or incidence were excluded, such that only one of the repeated compounds was selected as a hit.

Row | SMILES | Average Incidence SD Away [SD] | Average Length SD Away [SD]
1 | OCCN(CCO)c1nc(N2CCCCC2)c2nc(N(CCO)CCO)nc(N3CCCCC3)c2n1 [Dipyridamole (Persantine), Dipyridamole] | 2.055 | 
2 | CC(=O)O[C@@]12CO[C@@H]1C[C@H](O)[C@@]1(C)C(=O)[C@H](O)C3=C(C)[C@@H](OC(=O)[C@H](O)[C@@H](NC(=O)OC(C)(C)C)c4ccccc4)C[C@@](O)([C@@H](OC(=O)c4ccccc4)[C@H]21)C3(C)C [Docetaxel] |  | 3.416
3 | CCN[C@H]1C[C@H](C)S(=O)(=O)c2sc(S(N)(=O)=O)cc21 [Dorzolamide HCL] |  | 2.205
4 | Cc1cc(Cl)ccc1OCCCC(=O)NO [Droxinostat] | 2.26 | 2.91
5 | C[C@]12CC[C@@H]3c4ccc(O)cc4CC[C@H]3[C@@H]1CC[C@@H]2OC(=O)CCC1CCCC1 [ESTRADIOL CYPIONATE] |  | 1.56
6 | CC1=NN(c2ccccc2)C(=O)C1 [Edaravone (MCI-186), Edaravone] | 1.537 | 
7 | CCOc1ccc2nc3cc(N)ccc3c(N)c2c1 [Ethacridine lactate monohydrate] |  | 2.114
8 | CC(C)OC(=O)C(C)(C)Oc1ccc(C(=O)c2ccc(Cl)cc2)cc1 [Fenofibrate (Tricor Trilipix), Fenofibrate] | 2.95 | 
9 | CC(C(=O)[O-])c1cccc(Oc2ccccc2)c1.CC(C(=O)[O-])c1cccc(Oc2ccccc2)c1.[Ca+2] (centres unmarked) [Fenoprofen calcium] | 3.368 | 
10 | O=c1[nH]c(=O)n([C@H]2C[C@H](O)[C@@H](CO)O2)cc1F [Floxuridine] | 1.58 | 1.672
11 | CC(C)C(=O)Nc1ccc([N+](=O)[O-])c(C(F)(F)F)c1 [Flutamide (Eulexin), Flutamide] | 2.035 | 
12 | CN(CCOc1ccc(C[C@H](Nc2ccccc2C(=O)c2ccccc2)C(=O)O)cc1)c1ccccn1 [GW 1929] |  | 1.65
13 | COC(=O)C1=CO[C@@H](O[C@@H]2O[C@H](CO)[C@@H](O)[C@H](O)[C@H]2O)[C@@H]2C(CO)=CC[C@H]12 [Geniposide] | 4.335 | 
14 | O=c1c(-c2ccc(O)cc2)coc2cc(O)cc(O)c12 [Genistein] | 1.524 | 
15 | CC1C(=O)OC2C(O)C34C5CC(C(C)(C)C)C36C(OC(=O)C6O)OC4(C(=O)O5)C12O (centres unmarked) [Ginkgolide B] |  | 1.581
16 | CC1=NCCc2c1[nH]c1cc(O)ccc21.Cl [HARMALOL HYDROCHLORIDE] |  | 1.629
17 | CC(=O)O[C@H]1CC[C@@]2(C)[C@@H](CC[C@@H]3[C@@H]2CC(=O)[C@]2(C)[C@@H]4[C@H](C[C@@H]32)O[C@]2(CC[C@@H](C)CO2)[C@H]4C)C1 [HECOGENIN ACETATE] |  | 2.21
18 | CC[n+]1c(-c2ccccc2)c2cc(N)ccc2c2ccc(N)cc21 [HOMIDIUM BROMIDE] |  | 1.694
19 | CCN(CC)CCNc1ccc(CO)c2sc3ccccc3c(=O)c12 [HYCANTHONE] |  | 2.896
20 | NC(=O)NO [Hydroxyurea (Cytodrox), Hydroxyurea] | 1.988 | 
21 | COc1cc(OC)c(C=C2C(O)=Nc3ccccc32)c(OC)c1 [IC 261] |  | 1.651
22 | CCC(C)n1ncn(-c2ccc(N3CCN(c4ccc(OCC5COC(Cn6cncn6)(c6ccc(Cl)cc6Cl)O5)cc4)CC3)cc2)c1=O (centres unmarked) [ITRACONAZOLE] |  | 2.154
23 | O=c1[nH]c(=O)n([C@H]2C[C@H](O)[C@@H](CO)O2)cc1I [Idoxuridin] | 1.798 | 
24 | COc1cc(C(C)=O)ccc1OCCCN1CCC(c2noc3cc(F)ccc23)CC1 [Iloperidone (Fanapt), Iloperidone] | 1.775 | 
25 | O=C1Nc2ccccc2/C1=C1/Nc2ccccc2/C1=N\O [Indirubin-3′-oxime] |  | 2.475
26 | CCc1c2c(nc3ccc(OC(=O)N4CCC(N5CCCCC5)CC4)cc13)-c1cc3c(c(=O)n1C2)COC(=O)[C@]3(O)CC [Irinotecan] | 1.681 | 1.658
27 | Nc1nc(N)nc(-c2cc(Cl)ccc2Cl)n1 [Irsogladine] | 1.543 | 

Row | SMILES | Average Incidence SD Away [SD] | Average Length SD Away [SD]
28 | CC(C)NCC(O)c1ccc(O)c(O)c1 (centres unmarked) [Isoprenaline hydrochloride] | 1.623 | 
29 | COc1cc2c(cc1OC)CC(=O)N(CCCN(C)C[C@H]1Cc3cc(OC)c(OC)cc31)CC2 [Ivabradine HCl (Procoralan), Ivabradine HCl] | 1.611 | 
30 | CC(=O)O[C@H]1C[C@@H](OC(C)=O)C(C)(C)[C@@H]2C[C@@H](OC(C)=O)[C@]3(C)[C@H](CC[C@@]4(C)[C@H](c5ccoc5)OC(=O)[C@H]5O[C@@]534)[C@@]12C [KHIVORIN] |  | 1.723
31 | O=C1Cc2c([nH]c3ccc(Br)cc23)-c2ccccc2N1 [Kenpaullone] |  | 3.28
32 | CC(=O)C(=Cc1ccccc1)CC(=O)O [LEVULINIC ACID 3-BENZYLIDENYL-] |  | 2.3613
33 | c1ccc(-c2[nH]ncc2-c2ccnc3ccccc23)nc1 [LY 364947] | 1.591 | 
34 | O=C(C[S+]([O-])Cc1ccco1)NC/C=C\COc1cc(CN2CCCCC2)ccn1 (centres unmarked) [Lafutidine] | 1.619 | 
35 | C[C@@H]1CC(=O)NN=C1c1ccc(NN=C(C#N)C#N)cc1 [Levosimendan] | 1.52 | 
36 | CC1(C)Cc2c(-c3ccccc3)c(-c3ccc(Cl)cc3)c(CC(=O)O)n2C1 [Licofelone] | 1.936 | 
37 | O=NN(CCCl)C(=O)NC1CCCCC1 [Lomustine (CeeNU), Lomustine] | 2.228 | 
38 | O=C(O)c1nn(Cc2ccc(Cl)cc2Cl)c2ccccc12 [Lonidamine] |  | 2.357
39 | CCOC(=O)N1CCC(=C2c3ccc(Cl)cc3CCc3cccnc32)CC1 [Loratidine] |  | 2.261
40 | S=c1nc[nH]c2nc[nH]c12 [MERCAPTOPURINE] |  | 1.722
41 | CON [METHOXYAMINE HYDROCHLORIDE] |  | 1.91
42 | Oc1ccc(OCc2ccccc2)cc1 [MONOBENZONE] |  | 1.914
43 | CC(=O)O[C@]1(C(C)=O)CC[C@H]2[C@@H]3C[C@H](C)C4=CC(=O)CC[C@]4(C)[C@H]3CC[C@@]21C [Medroxyprogesterone acetate] | 2.659 | 
44 | O=C([O-])c1ccccc1-c1c2cc(Br)c(=O)cc-2oc2[c]([Hg+])c([O-])c(Br)cc12.[Na+].[Na+].[OH-] [Merbromin] |  | 5.067
45 | CN(Cc1cnc2nc(N)nc(N)c2n1)c1ccc(C(=O)N[C@@H](CCC(=O)O)C(=O)O)cc1 [Methotrexate] | 2.424 | 3.097
46 | COCCc1ccc(OCC(O)CNC(C)C)cc1 (centres unmarked) [Metoprolol tartrate] | 1.601 | 
47 | Cc1ncc([N+](=O)[O-])n1CCO [Metronidazole (Flagyl), Metronidazole] | 2.092 | 
48 | CN1CCN2c3ncccc3Cc3ccccc3C2C1 (centres unmarked) [Mirtazapine (Remeron Avanza), Mirtazapine] | 1.681 | 
49 | COc1c(C)c2c(c(O)c1C/C=C(\C)CCC(=O)OCCN1CCOCC1)C(=O)OC2 [Mycophenolate mofetil (CellCept), Mycophenolate mofetil] | 1.654 | 1.579
50 | CC(C)(C)[N+]([O-])=Cc1ccc(S(=O)(=O)[O-])cc1S(=O)(=O)[O-].[Na+].[Na+] [NXY 059] | 1.838 | 
51 | Cc1cccc(C)c1NC(=O)CN1CCCC1=O [Nefiracetam (Translon), Nefiracetam] | 1.552 | 
52 | O=C(NCCO[N+](=O)[O-])c1cccnc1 [Nicorandil (Ikorel), Nicorandil] | 1.556 | 
53 | CCOC(=O)C1=C(C)NC(C)=C(C(=O)OC)C1c1cccc([N+](=O)[O-])c1 (centres unmarked) [Nitrendipine] | 1.542 | 

Same assay, conditions: 10 μM, 16 hours; hit = 1.5 standard deviation above population average, at least 40% viability

Row | SMILES | classification as hit increasing cilia length in the screen
54 | CN(Cc1cnc2nc(N)nc(N)c2n1)c1ccc(C(=O)N[C@@H](CCC(=O)O)C(=O)O)cc1 [Methotrexate] | listed as hits
